Experimental data published in patent publication US10675267B2, “Methods for detection and eradication of myeloid leukemia stem cells” (priority 2015, dated 2020).

Tested on: HEK293 cells
Assay: In vitro splicing of endogenous transcripts (qRT-PCR, RT-PCR) in HEK293
Format: cell-based
Protocol: (§1) For qRT-PCR analysis of relative total mRNA expression levels or splice isoform-specific expression analyses, cDNA was synthesized using 50 ng-1 pg of template RNA in 20 μL reaction volumes using the First-Strand SUPERSCRIPT™ III Reverse Transcriptase Supermix (Life Technologies) followed by incubation with RNase H according to the manufacturer's protocol and as described previously. All cDNA products were stored at −20° C. Splice isoform-specific primers for PTK2B-202 were designed to bind to unique exon junctions for this transcript, which lacks exon 24. […] For standard qRT-PCR, human HPRT mRNA transcript levels were used to normalize Ct values obtained for each gene, and relative expression levels were calculated using the 2^−ddCt method. […]
as §1, with “[…]” for “pg”, “[…]” for “μL”, “previously (Abrahamsson et al., 2009; Crews et al., 2015).” for “previously. All cDNA products were stored at −20° C. Splice isoform-specific primers for PTK2B-202 were designed to bind to unique exon junctions for this transcript, which lacks exon 24.”, “2-ddCt” for “2^−ddCt”

SMILES: CC[C@H](OC)[C@@H](C)[C@H]1O[C@@H]1[C@@H](O)[C@H](C)/C=C/C=C(\C)[C@H]1OC(=O)C[C@H](O)CC[C@@](C)(O)[C@@H](OC(C)=O)/C=C/[C@@H]1C (stereo in doubt) [Formula 17S-FD-895, 17S-FD-895]
- MCL1-S expression (qRT-PCR) (HEK293, 0.01-10 μM, 4 hrs): low doses of 17S-FD-895 increased MCL1-S expression, this effect was reversed at high doses
- DNAJB1 intron 2 levels (HEK293 cells, compared with MOLM-13): to a lesser extent
